{"source": "patent US20090264371A1", "about": "“ANTIPROLIFERATIVE PEPTIDES AND ANTIBODIES FOR THEIR DETECTION” (BIOINCEPT LLC, priority 2004, published 2009)", "key": {"[1]": {"test_system": "renal cancer cells (surgical specimen)", "assay": "Proliferation of cells from a surgical renal cancer specimen", "type": "cell-based", "conditions": "about 24-30 hrs; chemotherapies at high concentrations of approximately 10-100 fold", "description": "Cells were incubated with purified developmental peptides for approximately 24-30 hrs. While developmental peptides were effective in inhibiting proliferation of the renal cancer cells, two standardly used chemotherapies (a 5-FU regimen and a vinblastine regimen) remained ineffective, even at a high concentrations of approximately 10-100 fold."}, "[2]": {"test_system": "renal carcinoma cells (RCC)", "assay": "Viability of short-term cultured renal carcinoma cells (P1 and JC-1 staining)", "type": "cell-based", "description": "Mitochondrial membrane potential. A stock solution of JC-1 dye (100 μg/ml in DMSO) is prepared. Cells are preincubated with the peptide of SEQ ID NO: 2 for up to 24 hours. JC-1 reagent is diluted just prior to use. For each assay, 100 μl of stock solution is diluted to 1 ml using pre-warmed cell culture medium and the solution is vortexed. 40 μl of diluted JC-1 is added to each well and incubated at 37° C. in 5% CO2 incubator for 25-30 min. Medium is replaced with pre-warmed PBS. Samples are detected by fluorescent signals by using flow cytometry results compared to buffer only treated controls. JC-1 reagent accumulates in the intact mitochondria, giving off a bright red fluorescence. In apoptotic cells, JC-1 reagent cannot accumulate in the mitochondria due to the altered mitochondrial membrane potential.\nFIG. 2 further confirms developmental peptides effectiveness as compared to chemotherapy. Short-term cultured renal carcinoma cells (RCC) were incubated with developmental peptides. […] While not wishing to be bound to theory, the anti-proliferative effect of developmental peptides is thought to be due to the developmental peptides induction of mitochondrial alterations in the malignant cells, as analyzed using JC-1 staining, a process which invariably leads to cell death. […] Thus, low concentrations of developmental peptides may enhance the efficacy of a chemotherapy regimen."}, "[3]": {"test_system": "MCF-7 cells", "assay": "XTT method on MCF-7 cells", "type": "cell-based", "conditions": "about 1.5 mg/ml", "description": "(§1) XTT method. A commercial (Roche, N.J.) kit was used. At the end of the experiment the XTT labeling mixture was coupled to the electron reagent coupling and was added to the cultured cells in microplate for 4 hours. The microplate was placed in an ELISA microplate reader (Molecular devices, Menlo Park, Calif.).\n(§2) A breast cancer cell line (MCF-7) and human mammary epithelial cells (HMEC) were incubated with the 9 AA developmental peptides of SEQ ID NO: 2. 3H thymidine labeling of DNA was used to analyze the anti-proliferative effect of developmental peptides using concentrations in the range of about 1.5-12 mg/ml developmental peptides. […] The antiproliferative response was repeated and analyzed using the XTT method. […] Finally, this same analysis was repeated using resistant prostate cancer cells, the PC3 cell line, which are androgen receptor negative cells. Developmental peptides was added to the cells using concentrations of about 6-25 mg/ml for 24 hours in the presence of 3H thymidine to measure the effect of developmental peptides on cell proliferation."}, "[4]": {"test_system": "MCF-7 breast cancer cells", "assay": "3H thymidine incorporation assay on MCF-7 cells", "type": "cell-based", "conditions": "about 1.5-12 mg/ml, low concentrations", "description": "Isolation of the 9AA peptide from the adult mammalian liver. Fresh adult rabbit liver tissues were collected and homogenized on ice with H20. The samples were centrifuged at 15,000 g and the sample was filtered using Amicon filters 3000-10000 Da, <3000-500, and <500. Fractions collected were tested for activity using the MCF-7 cells. […] Separation by reverse phase HPLC yielded a 90% inhibition of cancer cells.\nIn a similar manner adult frozen porcine liver was collected and homogenized with H2O at 4° C. The suspension was centrifuged at 15,000 g and the pellet discarded. The suspension was filtered and the fraction <3000 Da was collected and run using reversed phase HPLC C18 column with a 0-95% acetonitrile gradient. […] Antiproliferative activity was tested by collecting the fractions, drying and suspending the sample in media and adding to MCF7 cells for 48 hours. Incorporation of 3H thymidine into cellular DNA of MCF-7 breast cancer cells was used to determine the anti-proliferative activity.\n3H Thymidine assay. […] Cell from each well were transferred to a scintillation vial and counted in a Beckman Counter Model LS-133 scintillation counter.\n(§3) A breast cancer cell line (MCF-7) and human mammary epithelial cells (HMEC) were incubated with the 9 AA developmental peptides of SEQ ID NO: 2. […] The antiproliferative response was repeated and analyzed using the XTT method. […]"}, "[5]": {"test_system": "human mammary epithelial cells (HMEC)", "assay": "3H thymidine labeling of DNA in normal HMEC cells", "type": "cell-based", "conditions": "about 1.5-12 mg/ml, low concentrations", "description": "3H Thymidine assay. In particular the tritiated thymidine assays were performed as follows. 10,000 cells were plated in 1 ml of RPMI 1640 medium containing 10% fetal bovine serum in 24-well plates. The cultures were incubated for 24 hours at 37 C, 5% carbon dioxide. The peptide was added to each corresponding well at different doses and allowed to incubate for 72 hours. The cells were then exposed to tritiated thymidine at a concentration of 1 uCi/ml (ICN, cat #2403905) and incubated at 37 C for 4 hours. The cells were washed twice with cold PBS to remove non-incorporated thymidine. The cells were treated twice with 10% trichloracetic acid (Fisher, lot #94276913), 1 ml per well. The cells were then disrupted by treatment with 10% sodium lauryl sulfate (Sigma, Cat#L-3771) at 500 ul/well. Cell from each well were transferred to a scintillation vial and counted in a Beckman Counter Model LS-133 scintillation counter.\nas §3, with “2. 3H thymidine labeling of DNA was used to analyze the anti-proliferative effect of developmental peptides using concentrations in the range of about 1.5-12 mg/ml developmental peptides.” for “2.”"}, "[6]": {"test_system": "HMEC cells", "assay": "XTT method on HMEC cells", "type": "cell-based, human", "conditions": "about 1.5 mg/ml", "description": "as §1, §2"}, "[7]": {"test_system": "rat embryo cultures", "assay": "Rat embryo culture teratogenicity (roller bottle system)", "conditions": "48 hours, about 500 μg/ml", "description": "Rat embryo cultures were exposed to synthetic developmental peptides of about 9 AA (about 500 μg/ml) for 48 hours (FIG. 6)."}, "[8]": {"test_system": "PC3 cell line (androgen receptor negative prostate cancer cells)", "type": "cell-based", "conditions": "about 12-25 mg/ml, 24 hours"}}}
{"molecule": "O=c1[nH]cc(F)c(=O)[nH]1", "note": "[5-FU]", "values": [{"measurement": "inhibition of renal cancer cell proliferation", "setting": "[1]", "value": "ineffective"}]}
{"molecule": "COc1cc([C@@H]2c3cc4c(cc3[C@@H](O[C@@H]3O[C@@H]5CO[C@@H](C)O[C@H]5[C@H](O)[C@H]3O)[C@H]3COC(=O)[C@H]23)OCO4)cc(OC)c1O", "note": "[etoposide]", "values": [{"measurement": "cell viability / cell death in RCC, P1 staining", "setting": "[2]", "value": "failed to induce cell death"}]}
{"molecule": "CN(Cc1cnc2nc(N)nc(N)c2n1)c1ccc(C(=O)N[C@@H](CCC(=O)O)C(=O)O)cc1", "note": "[methotrexate]", "values": [{"measurement": "cell viability / cell death in RCC, P1 staining", "setting": "[2]", "value": "failed to induce cell death"}]}
{"molecule": "CC(=O)O[C@H]1C(=O)[C@@]2(C)[C@H]([C@H](OC(=O)c3ccccc3)[C@]3(O)C[C@H](OC(=O)[C@H](O)[C@@H](NC(=O)c4ccccc4)c4ccccc4)C(C)=C1C3(C)C)[C@]1(OC(C)=O)CO[C@@H]1C[C@@H]2O", "note": "[paclitaxel]", "values": [{"measurement": "cell viability / cell death in RCC, P1 staining", "setting": "[2]", "value": "failed to induce cell death"}]}
{"molecule": "CC[C@]1(O)C[C@@H]2CN(CCc3c([nH]c4ccccc34)[C@@](C(=O)OC)(c3cc4c(cc3OC)N(C)[C@H]3[C@@](O)(C(=O)OC)[C@H](OC(C)=O)[C@]5(CC)C=CCN6CC[C@]43[C@@H]65)C2)C1", "note": "[vinblastine]", "values": [{"measurement": "inhibition of renal cancer cell proliferation", "setting": "[1]", "value": "ineffective"}]}
{"molecule": "H-VLGKRIKGT-OH [9 AA developmental peptides, N-Val-Leu-Gly-Lys-Arg-Ile-Lys-Gly-Thr-OH]", "values": [{"measurement": "antiproliferative effect, XTT", "setting": "[3]", "value": "maintained the antiproliferative effect"}, {"measurement": "antiproliferative response, 3H thymidine", "setting": "[4]", "value": "antiproliferative response was maintained"}, {"measurement": "effect on normal HMEC cells, 3H thymidine", "setting": "[5]", "value": "absence of any harmful or negative effect"}, {"measurement": "effect on HMEC cells, XTT", "setting": "[6]", "value": "minimal effect"}, {"measurement": "development of viscera yolk sac and embryo", "setting": "[7]", "value": "developed normally"}, {"measurement": "teratogenicity", "setting": "[7]", "value": "not teratogenic"}, {"measurement": "inhibition of PC3 proliferation, 3H thymidine", "setting": "[8]", "value": "approximately 98%"}]}
